Results taken from patent publication US10457707B2, “Substituted urea depsipeptide analogs as activators of the CLPP endopeptidase” (priority 2015, dated 2019).
*1 amine or outer side, *2 acyl side, *3 side chain or, on linkers, in order; H or OH if unused. Where a SMILES comes first, the peptide text is derived from it. Bridges are numbered along the chain shown (N, C = ends). [ ]: non-standard residue; d: D form. The star is where a group is joined. Piperazine(2S-CO,4-Me) = CN1CCN[C@H](C(=O)O)C1; NH(1,3-benzodioxol-5-yl) = c1cc2c(cc1N*)OCO2; Phe(3,5-F2) = N[C@@H](Cc1cc(F)cc(F)c1)C(=O)O; NH(1-Me-indolin-5-yl) = CN1CCc2cc(N*)ccc21; Morpholine(3S-CO) = O=C(O)[C@@H]1COCCN1; NH(4-Cl-2-F-phenyl) = Fc1cc(Cl)ccc1N*; Pro(4R-Me) = C[C@H]1CN[C@H](C(=O)O)C1; Hyp = O=C(O)[C@@H]1C[C@@H](O)CN1; Heptenoyl(2E) = CCCC/C=C/C(=O)*; aThr = C[C@H](O)[C@H](N)C(=O)O; Pip = O=C(O)[C@@H]1CCCCN1; X2 = CN1CCc2ccc(N*)cc21; X1 = N#Cc1cc(N*)ccc1F; CO = O=C([*:1])[*:2]

Molecular target: T1, Sa-ClpP (Staphylococcus aureus, UniProt Q2G036)
T1 construct: made in house; host or cells: E. coli BL21(DE3)
T1 sequence (Q2G036 1-195): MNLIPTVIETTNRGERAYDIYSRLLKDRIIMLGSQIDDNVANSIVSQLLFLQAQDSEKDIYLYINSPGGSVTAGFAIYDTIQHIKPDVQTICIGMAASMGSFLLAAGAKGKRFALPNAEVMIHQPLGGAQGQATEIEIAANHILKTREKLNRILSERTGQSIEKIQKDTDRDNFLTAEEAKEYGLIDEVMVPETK
Test: Sa-ClpP casein-BODIPY ClpP activation assay, method variant not marked in Table 5
Assay type: biochemical, S. aureus
Conditions: not given
Procedure: The compounds were assayed in a casein digestion assay in order to determine their effect on ClpP activation. Briefly, the assay was carried out using S. aureus ClpP (“Sa-ClpP”) overexpressed in E. coli BL21(DE3) and purified in a two-step process. Purity of the protein was assessed through SDS PAGE analysis. EC50 evaluations were conducted in triplicate in a 20 μl assay format using a method adapted from Maurizi et al. (Methods Enzymol. (1994) 244:314-331). Each well contained 10 μM saClpP, 25 μg/ml BODIPY FL casein (Invitrogen Corporation, San Diego, Calif.), and test compound in concentrations ranging between 0-1000 μM in assay buffer (50 mM Tris pH 8, 200 mM KCl, and 1 mM TCEP). The reaction took place at 37° C. Fluorescence (excitation 485 nm; emission 528 nm) was measured in five minute intervals over a 45 min period using a BioTek HT fluorescence microplate reader (BioTek Instruments, Inc., Winooski, Vt.). Velocity of each reaction was calculated and data was fit to a dose response curve using GraphPad Prism® software (GraphPad Software, Inc., La Jolla, Calif.). EC50 is the effective concentration of compound which causes 50% activation of S. aureus ClpP in the foregoing BODIPY FL casein assay.
Alternatively, the assay was carried out using EnzCheck Protease Assay (Molecular Probes, Catalog # E6638). The assay was performed in black 384 well, flat bottom, low volume plates (Greiner Bio-One, Monroe, N.C., catalog #784076). 10 μL of Tris*HCl buffer, pH 8.0 with 0.01% Triton X-100 was pipetted into each well using a Well-Mate (Thermo Scientific, Waltham, Mass.). 0.4 μL test compounds or controls (2% DMSO v/v) were added to each well using a Biomek FX liquid handling robot (Beckman Coulter, Indianapolis Ind.). After addition of test compounds and controls, 10 μL of master mix containing 2 μM Sa-ClpP and 2 μM substrate (Bodipy-FL labeled casein) in Tris*HCl buffer, pH 8.0 with 0.01% (v/v) Triton X-100, was pipetted into each well. All assays were performed in triplicate, under linear velocity conditions. Increase in fluorescent signal following activation of Sa-ClpP by test compounds and controls was measured over time period of 30 mins using filters with excitation at 485±15 nm and emission at 520±25 nm on a PHERAstar FS Multilabel reader (BMG, Cary, N.C.). […] Data analysis was done by measuring rate of casein degradation over time (slopes). Computed degradation rates (slopes) were normalized to positive (ADEP4) or negative (DMSO) controls. Using nonlinear regression curve fitting EC50 values and % activation were determined using the equation “log [agonist] vs. Response-variable slope (four parameters)-symmetrical” in the program Prism 6 (GraphPad Software, La Jolla, Calif. USA, www.graphpad.com).
Substituted urea depsipetide analogs were synthesized as described above. The EC50 for ClpP activation was determined in the Sa-ClpP in casein-BODIPY assay as described above. The IC50 for ADEP displacement was determined in the ADEP displacement fluorescent polarization assay as described above; and the IC50 for growth inhibition was determined in the Vero cell cytotoxicity assay as described above. The compound number corresponds to the compound numbers used in Tables 1-4 and the experimental examples described above.

| SMILES | EC50 |
| --- | --- |
| C[C@@H]1C[C@H]2C(=O)OC[C@H](NC(=O)[C@H](Cc3cc(F)cc(F)c3)NC(=O)Nc3ccc4c(c3)OCO4)C(=O)N3C[C@H](O)C[C@H]3C(=O)N3CCCCC3C(=O)N[C@@H](C)C(=O)N2C1 (stereo partly drawn) [Compound 325, (S)-2-(3-(benzo[d][1,3]dioxol-5-yl)ureido)-3-(3,5-difluorophenyl)-N-((2R,6S,8aR,14aS,16R,20S,23aS)-16-hydroxy-2,6-dimethyl-5,8,14,19,23-pentaoxooctadecahydro-1H,5H,14H,19H-pyrido[2,1-i]dipyrrolo[2,1-c:2′,1′-l][1]oxa[4,7,10,13]tetraazacyclo-hexadecin-20-yl)propanamide] | 350 ± 20 nM |
| C[C@@H]1C[C@H]2C(=O)O[C@@H](C)[C@H](NC(=O)[C@H](Cc3cc(F)cc(F)c3)NC(=O)Nc3ccc4c(c3)OCO4)C(=O)N3C[C@H](O)C[C@H]3C(=O)N3CCOC[C@H]3C(=O)N[C@@H](C)C(=O)N2C1 [Compound 319, (S)-2-(3-(benzo[d][1,3]dioxol-5-yl)ureido)-3-(3,5-difluorophenyl)-N-((6aS,8R,12S,13S,15aS,17R,21S,23aS)-8-hydroxy-13,17,21-trimethyl-6,11,15,20,23-pentaoxooctadecahydro-6H,11H,15H-[1,4]oxazino[3,4-i]dipyrrolo[2,1-c:2′,1′-l][1]oxa[4,7,10,13]tetraazacyclo-hexadecin-12-yl)propanamide] ({NH(1,3-benzodioxol-5-yl)-CO}-[Phe(3,5-F2)][aThr][Hyp][Morpholine(3S-CO)]A[Pro(4R-Me)]; ester 2-C) | 450 ± 40 nM |
| C[C@@H]1C[C@H]2C(=O)O[C@@H](C)[C@H](NC(=O)[C@H](Cc3cc(F)cc(F)c3)NC(=O)Nc3ccc(Cl)cc3F)C(=O)N3CCC[C@H]3C(=O)N3CCCC[C@H]3C(=O)N[C@@H](C)C(=O)N2C1 [Compound 307, (S)-2-(3-(4-chloro-2-fluorophenyl)ureido)-3-(3,5-difluorophenyl)-N-((2R,6S,8aS,14aS,20S,21S,23aS)-2,6,21-trimethyl-5,8,14,19,23-pentaoxooctadecahydro-1H,5H,14H,19H-pyrido[2,1-i]dipyrrolo[2,1-c:2′,1′-l][1]oxa[4,7,10,13]tetraazacyclo-hexadecin-20-yl)propanamide] ({NH(4-Cl-2-F-phenyl)-CO}-[Phe(3,5-F2)][aThr]P[Pip]A[Pro(4R-Me)]; ester 2-C) | 440 ± 30 nM |
| C[C@@H]1C[C@H]2C(=O)O[C@@H](C)[C@H](NC(=O)[C@H](Cc3cc(F)cc(F)c3)NC(=O)Nc3ccc(F)c(C#N)c3)C(=O)N3C[C@H](O)C[C@H]3C(=O)N3CCOC[C@H]3C(=O)N[C@@H](C)C(=O)N2C1 [Compound 326, (S)-2-(3-(3-cyano-4-fluorophenyl)ureido)-3-(3,5-difluorophenyl)-N-((6aS,8R,12S,13S,15aS,17R,21S,23aS)-8-hydroxy-13,17,21-trimethyl-6,11,15,20,23-pentaoxooctadecahydro-6H,11H,15H-[1,4]oxazino[3,4-i]dipyrrolo[2,1-c:2′,1′-l][1]oxa[4,7,10,13]tetraazacyclo-hexadecin-12-yl)propanamide] ({X1-CO}-[Phe(3,5-F2)][aThr][Hyp][Morpholine(3S-CO)]A[Pro(4R-Me)]; ester 2-C) | 460 ± 40 nM |
| C[C@@H]1C[C@H]2C(=O)O[C@@H](C)[C@H](NC(=O)[C@H](Cc3cc(F)cc(F)c3)NC(=O)Nc3ccc(Cl)cc3F)C(=O)N3CCC[C@H]3C(=O)N3CCOC[C@H]3C(=O)N[C@@H](C)C(=O)N2C1 [Compound 314, (S)-2-(3-(4-chloro-2-fluorophenyl)ureido)-3-(3,5-difluorophenyl)-N-((6aS,12S,13S,15aS,17R,21S,23aS)-13,17,21-trimethyl-6,11,15,20,23-pentaoxooctadecahydro-6H,11H,15H-[1,4]oxazino[3,4-i]dipyrrolo[2,1-c:2′,1′-l][1]oxa[4,7,10,13]tetraazacyclo-hexadecin-12-yl)propanamide] ({NH(4-Cl-2-F-phenyl)-CO}-[Phe(3,5-F2)][aThr]P[Morpholine(3S-CO)]A[Pro(4R-Me)]; ester 2-C) | 400 ± 10 nM |
| C[C@@H]1C[C@H]2C(=O)OC[C@H](NC(=O)[C@H](Cc3cc(F)cc(F)c3)NC(=O)Nc3ccc(Cl)cc3F)C(=O)N3CCC[C@H]3C(=O)N3CCN(C)C[C@H]3C(=O)N[C@@H](C)C(=O)N2C1 [Compound 330, (S)-2-(3-(4-chloro-2-fluorophenyl)ureido)-3-(3,5-difluorophenyl)-N-((6aS,12S,15aS,17R,21S,23aS)-2,17,21-trimethyl-6,11,15,20,23-pentaoxooctadecahydro-2H,6H,11H,15H-pyrazino[2,1-i]dipyrrolo[2,1-c:2′,1′-l][1]oxa[4,7,10,13]tetraazacyclohexadecin-12-yl)propanamide] ({NH(4-Cl-2-F-phenyl)-CO}-[Phe(3,5-F2)]SP[Piperazine(2S-CO,4-Me)]A[Pro(4R-Me)]; ester 2-C) | 290 ± 20 nM |

Same assay, conditions: values without ** or † mark; assay variant not stated; read-out: ClpP Activation EC50

| SMILES | EC50 |
| --- | --- |
| C[C@@H]1C[C@H]2C(=O)O[C@@H](C)[C@H](NC(=O)[C@H](Cc3cc(F)cc(F)c3)NC(=O)Nc3ccc4c(c3)N(C)CC4)C(=O)N3CCC[C@H]3C(=O)N3CCCC[C@H]3C(=O)N[C@@H](C)C(=O)N2C1 [Compound 321, (S)-3-(3,5-difluorophenyl)-2-(3-(1-methylindolin-6-yl)ureido)-N-((2R,6S,8aS,14aS,20S,21S,23aS)-2,6,21-trimethyl-5,8,14,19,23-pentaoxooctadecahydro-1H,5H,14H,19H-pyrido[2,1-i]dipyrrolo[2,1-c:2′,1′-l][1]oxa[4,7,10,13]tetraazacyclo-hexadecin-20-yl)propanamide] ({X2-CO}-[Phe(3,5-F2)][aThr]P[Pip]A[Pro(4R-Me)]; ester 2-C) | 520 ± 20 nM |
| C[C@@H]1C[C@H]2C(=O)OC[C@H](NC(=O)[C@H](Cc3ccccc3)NC(=O)Nc3ccc4c(c3)OCO4)C(=O)N3CCC[C@H]3C(=O)N3CCCC[C@H]3C(=O)N[C@@H](C)C(=O)N2C1 [Compound 194, (S)-2-(3-(benzo[d][1,3]dioxol-5-yl)ureido)-N-((2R,6S,8aS,14aS,20S,23aS)-2,6-dimethyl-5,8,14,19,23-pentaoxooctadecahydro-1H,5H,14H,19H-pyrido[2,1-i]dipyrrolo[2,1-c:2′,1′-l][1]oxa[4,7,10,13]tetraazacyclohexadecin-20-yl)-3-phenylpropanamide] | 1200 ± 600 nM |
| CCCC/C=C/C(=O)N[C@@H](Cc1cc(F)cc(F)c1)C(=O)N[C@@H]1C(=O)N2C[C@H](O)C[C@H]2C(=O)N2CCCC[C@H]2C(=O)N[C@@H](C)C(=O)N2C[C@H](C)C[C@H]2C(=O)O[C@H]1C [Compound 301, (E)-N—((S)-3-(3,5-difluorophenyl)-1-(((2R,6S,8aS,14aS,16R,20S,21S,23aS)-16-hydroxy-2,6,21-trimethyl-5,8,14,19,23-pentaoxooctadecahydro-1H,5H,14H,19H-pyrido[2,1-i]dipyrrolo[2,1-c:2′,1′-l][1]oxa[4,7,10,13]tetraazacyclohexadecin-20-yl)amino)-1-oxopropan-2-yl)hept-2-enamide] ({Heptenoyl(2E)}-[Phe(3,5-F2)][aThr][Hyp][Pip]A[Pro(4R-Me)]; ester 2-C) | 420 ± 10 nM |
| C[C@@H]1C[C@H]2C(=O)O[C@@H](C)[C@H](NC(=O)[C@H](Cc3cc(F)cc(F)c3)NC(=O)Nc3ccc4c(c3)CCN4C)C(=O)N3CCC[C@H]3C(=O)N3CCCC[C@H]3C(=O)N[C@@H](C)C(=O)N2C1 [Compound 310, (S)-3-(3,5-difluorophenyl)-2-(3-(1-methylindolin-5-yl)ureido)-N-((2R,6S,8aS,14aS,20S,21S,23aS)-2,6,21-trimethyl-5,8,14,19,23-pentaoxooctadecahydro-1H,5H,14H,19H-pyrido[2,1-i]dipyrrolo[2,1-c:2′,1′-l][1]oxa[4,7,10,13]tetraazacyclo-hexadecin-20-yl)propanamide] ({NH(1-Me-indolin-5-yl)-CO}-[Phe(3,5-F2)][aThr]P[Pip]A[Pro(4R-Me)]; ester 2-C) | 440 ± 30 nM |
